Measurements: US8993568B2, “Morpholinyl derivatives useful as MOGAT-2 inhibitors” (Eli Lilly and Company, priority 2012, dated 2015)

Tests used:
[1] = target: human MOGAT-2 (Homo sapiens (Human), UniProt Q3SYC2); test: MOGAT-2 Cell Assay (Caco-2 cells stably transfected with human MOGAT-2, HDG substrate, LC-MS); assay type: cell-based; conditions: Caco-2 cells expressing human MOGAT-2; value (Std Dev., n)
Experimental: Inhibitory Activity in MOGAT-2 Cell Assay
The inhibitory activity of compounds against human MOGAT-2 in a cell environment is evaluated in this assay. […] The substrate is delivered to cells using as a mixture with DOPC in the form of sonicated vesicles.
Seed the Caco2 cells onto 100 mm dishes to be 80% confluent after 24 hours in complete media (3/1 DMEM: F12+10% FBS+20 mM HEPES+gentamicin). Transfect the cells with hMOGAT-2 plasmid (MOGAT-2-pCDNA3.1-Hygro) using Lipofectamine 2000 (Invitrogen). After a 6 hour exposure to the transfection mixture, wash the cells three times in PBS and then add media. Incubate the cells for an additional 18 hours incubation, trypsinize the cells and serially dilute them into 100 mm dishes. Add complete media+400 μg/ml hygromycin and incubate until clones appear. Isolate and transfer the clones into 24 well dishes and grow to confluence. Prepare the RNAs from these clones using a Qiagen RNAeasy kit. Perform Taqman analysis using an ABI inventoried assay (HS00228262) on a 7900 Sequence Detection System (ABI).
Mix 2-O-hexadecylglycerol (“HDG”, Biosynth Chemistry & Biology, # H-1806, 562.7 μl of 20 mg/ml) and DOPC (14.3 ml of 20 mg/ml) in chloroform in a glass tube; dry first under N2 gas; and then under reduced pressure for additional 30 minutes. Add 20 ml of buffer (150 mM Tris-Cl pH 7.4, 250 mM sucrose, 1 mM EDTA) to the dried HDG/DOPC mixture while sonicating until the solution becomes clear. Plate the Caco2 cells into a poly-D-lysine coated 96-well plate (the “Cell Plate”) at 37° C., 5% CO2 overnight. Remove the growth media and pretreat the cells with the test compound in DMEMF12 (3:1) media (GIBCO 93-0152DK) containing 2% BSA (Sigma) for 30 minutes. Treat the cells with one test compound in 2% BSA DMEMF12 (3:1) media containing 40 μM of oleic acid and 800 μM of 8.9:91.9 (molar ratio) HDG/DOPC for 4 hours. Trypsinize the cells with 50 μl of trypsin solution and add 50 μl of PBS. Immediately freeze the cells on dry ice and store at −20° C. for LC-MS analysis. […]

[2] = test system: TAG absorption; test: Dog Oil Bolus Model (plasma triglyceride after olive oil); assay type: in vivo, dog (male beagles)
Experimental: Pharmacological Effects in a Dog Oil Bolus Model
Inhibiting MOGAT-2 found in the small intestine may be useful for treating hypertriglyceridemia caused by excessive fat intake. To assess the ability of the exemplified compounds to inhibit TAG absorption, twenty one male beagles (n=7 per treatment group) are enrolled for each study, each dog selected to have a body weight between 9-13 kg. House the dogs in cages with a standard light cycle (12 hours light and 12 hours dark); at room temperature: 72±8° F.; and at 30%-70% relative humidity. Fast the dogs for 16 hours prior to the start of the study, then dose the fasted dogs with vehicle (1% HEC, 0.25%, Tween 80, Antifoam) or one of the test compounds in that vehicle. Bleed the dogs one hour after dosing, (0.5 ml from the jugular vein) for a time 0 sample. Dose the dogs with olive oil (Sigma Catalog#: O-1514, 5 ml/kg) immediately after collection of the time 0 sample. Collect samples into an EDTA tube on ice at 1.5, 2, 3, 5, 7, and 9 hrs post compound/vehicle dosing. Centrifuge the samples at […] for 15 min and analyze (Roche Cat no. 1877771) for plasma total triglyceride using a Roche Hitachi 917. For plasma TAG 18.1—18.1—18.1 measurement, extract the samples and perform LC/MS/MS analysis similarly to that described above in MOGAT-2 Cell Assay using 10 μL of plasma/.
The analyte is the [M+NH4]+ ion of TAG 18:1 18:1 18:1, which has a mass of 902.8 m/z; the internal standard is D5 TAG 16:0 16:0 16:0, which has a mass of 829.8 m/z. Report the ratio of the 603.5 m/z daughter ion of 902.8 m/z (TAG 18:1 18:1 18:1) and the 556.5 m/z daughter ion of 829.8 m/z (D5 TAG 16:0 16:0 16:0 internal standard) changes in TAG 18:1 18:1 18:1 relative amount. Calculate the net plasma TAG AUC from total TAG AUC minus baseline TAG AUC using Graphpad Prism4: (Net AUCTAG=AUCTAG post oil bolus−AUCTAG at 0 hour). The percent inhibition of plasma triglyceride is calculated as follows: the (oil bolus group mean of net TAG AUC−oil bolus group mean of net TAG AUC with compound treatment/oil bolus group mean of net TAG AUC)*100. The final statistic analysis uses Dunnett's method of One way Anova for comparison with the control. All Net TAG AUC values are transformed to ranked averaged AUC for comparison to limit the variability within the studies. The ability of exemplified compounds of the present invention to inhibit MOGAT-2 activity and reduce TAG absorption in vivo can be further evaluated according to this assay.

[3] = 30 mg/kg PO, combined three studies
[4] = 75 mg/kg PO, combined two studies

Chain of human MOGAT-2 (Q3SYC2 whole entry): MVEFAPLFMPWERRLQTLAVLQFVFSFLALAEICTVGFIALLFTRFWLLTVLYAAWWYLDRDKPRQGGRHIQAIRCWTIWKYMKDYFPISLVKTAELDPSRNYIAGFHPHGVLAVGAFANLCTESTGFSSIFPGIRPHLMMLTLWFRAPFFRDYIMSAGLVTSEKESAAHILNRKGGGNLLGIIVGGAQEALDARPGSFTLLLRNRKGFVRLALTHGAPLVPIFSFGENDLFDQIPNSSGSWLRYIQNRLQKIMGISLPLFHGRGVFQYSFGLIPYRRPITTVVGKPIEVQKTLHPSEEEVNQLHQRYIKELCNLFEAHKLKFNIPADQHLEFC

CS(=O)(=O)N[C@@H](c1ccc(CN2CCOC(c3ccccc3Cl)C2)cc1)C(F)(F)F (single isomer, unassigned; isomer 2) [Example 5]
IC50 [1]: 16 nM

CS(=O)(=O)N[C@@H](c1ccc(CN2CCOC(c3ccc(F)cc3)C2)cc1)C(F)(F)F (single isomer, unassigned; isomer 1) [Example 14]
IC50 [1]: 40 nM

C[C@@H](NS(C)(=O)=O)c1ccc(CN2CCO[C@@H](c3ccc(F)cc3)C2)cc1.O=C(O)/C=C\C(=O)O [Example 2, N-[(1R)-1-(4-{[(2S)-2-(4-Fluorophenyl)morpholin-4-yl]methyl}phenyl)ethyl]methanesulfonamide maleate]
inhibition of 18.1 TAG (plasma TAG 18:1 18:1 18:1) [2, 3]: 45%
inhibition of TAG absorption (net plasma total TAG AUC) [2, 3]: 43%
reduction in excursion of postprandial triglycerides ([2]; 30 mg/kg and 75 mg/kg, combined studies, p<0.05): statistically significant (p<0.05) reduction
inhibition of 18.1 TAG (plasma TAG 18:1 18:1 18:1) [2, 4]: 63%
inhibition of TAG absorption (net plasma total TAG AUC) [2, 4]: 64%

C[C@@H](NS(C)(=O)=O)c1ccc(CN2CCOC(c3cccc(C(F)(F)F)c3)C2)cc1 (single isomer, unassigned; isomer 2) [Example 11]
IC50 [1]: 98 nM
